Laboratory results published in patent publication US8598120B2 (Amylin Pharmaceuticals, LLC, priority 2004, dated 2013).

How the values were obtained:
[1] = Ethanol-induced gastric mucosal injury (gastroprotection); assay type: in vivo, rats; details: for ED50 for the gastroprotective effect: s.c.
Description: Thirty min after gavage, each rat was anesthetized with 5% halothane, the stomach excised, opened along the lesser curvature and everted to expose the mucosa. The everted stomachs were gently rinsed with saline and immediately graded for mucosal damage by each of 10 observers blinded to the experimental treatment.
Stomachs were excised and graded for injury 30 min after ethanol gavage, as described above. The result is provided in the next to the last bar of FIG. 11A.
Stomachs were excised and graded for injury 30 min after ethanol gavage, as described above, and blood was taken for plasma glucose measurement. The injury response was also measured in glucose-treated rats coadministered a 3 mg intravenous bolus of AC187 (n=9).

[2] = Pentagastrin-stimulated gastric acid secretion in gastric fistula rats; assay type: in vivo; details: for ED50 for the acid-suppressive effect: s.c.
Description: The experiments were performed during the light cycle. The rats, fed rat chow (Teklad L M 485, Madison, Wis.), were fasted for approximately 20 hours before experimentation. They were given water ad libitum until the start of the experiment.
The rats (age 9-14 weeks, body mass 264-395 g) were surgically fitted with double gastric fistulae by the supplier (Zivic Miller, Catalog number SCAO3.00). During laparotomy under halothane anesthesia, a grommet-shaped double lumen plug was sutured into the stomach wall. Two silastic 2.3 mm internal diameter (entry and exit) cannulae connected to the plug and communicating with the gastric lumen were tracked through the abdominal wall, subcutaneously to the interscapular region where they were separately exteriorized. The laparotomy wound was closed with clips, the rat was placed in a heated recovery cage for one day with free access to water. Thereafter, the rats were housed singly with free access to water and rat chow until they were subjected to overnight fasting for experiments which were performed on conscious rats, about 10-15 days after surgery.
Gastric catheters were uncapped and attached to flexible PE240 tubing for injection and sampling. To ensure patency of the catheters, 2-3 mL of saline solution at room temperature was injected and immediately withdrawn from the stomach. This was repeated until flow was easy and the effluent was clean. Gastric acid secretion was measured at 10 min intervals by injecting 5 mL saline and 2 mL air via one catheter, then immediately withdrawing the same via the other catheter. In this way errors due to incomplete aspiration of the small, secreted volume could be minimized. Three mL of each gastric aspirate were titrated to pH 7.0 with 0.01 N sodium hydroxide using a pH meter (Beckman model number PHI34 Fullerton, Calif.). The amount of base required for each titration, corrected for the total volume aspirated, was used to calculate the moles of acid in each sample.

[3] = in vivo; cited from earlier work
[4] = Ghrelin assay (plasma total and active ghrelin); assay type: in vivo, rats
Description: All experiments were performed in the light cycle. Animals were fasted for approximately 20 hours before experimentation. All animals were given free access to water until the start of the experiment. The animals' tails were anesthetized with 20% benzocaine (Hurricaine, Beutlich Pharmaceutical, Waukegan, Ill.), and blood samples were collected from the tail vein. Total and active ghrelin concentrations were measured using Linco RIA kits GHRA-89HK and GHRA-88HK, respectively.
In study 1, HSD rats were subjected to periodic blood sampling from the topically anesthetized tail and ghrelin levels were assayed. […] The blood samples were analyzed for total and active (acylated) ghrelin (Linco).
Blood plasma samples were collected at least at times 0, 10, 20, 30, 60, and 90 min.

[5] = 100 μg, one hour after amylin injection

Molecule: O=C[C@H](O)[C@@H](O)[C@H](O)[C@H](O)CO [D-glucose]
- decrease of gastric injury score ([1]; 250 mg intraperitoneal, t=−30 min from gavage): 18.5±4.6%

Molecule: Amylin: amylin peptide hormone as summarised from the literature (Table 1, background), species not stated (KCNTATCATQRLANFLVHSSNNFGAILSSTNVGSNTY; Islet amyloid polypeptide; UniProt P10997 34-70, looked up)
- rate of acid secretion as % of the basal rate that preceded pentagastrin injection [2, 5]: 32%
- reduction of pentagastrin-stimulated secretion of acid [2, 5]: 93.4±2.6%
- gastric acid production (FIG. 10A) ([2]; injected 40 min after pentagastrin, 0.1-100 μg): dose-dependently inhibited gastric acid production
- ED50 for the acid-suppressive effect [2]: 41 pmol/kg
- ED50 for the acid-suppressive effect ([2]; ±0.15 log units): 0.05 μg/rat
- reduction of injury score ([1]; doses of 0.3 μg and higher): 67%
- ED50 for the gastroprotective effect [1]: 31 pmol/kg
- protection of the stomach from mucosal injury (FIG. 11C) ([1]; s.c. before ethanol gavage, P<0.05 with doses of 0.1 μg and higher): dose-dependently protected the stomach from mucosal injury
- ED50 for the gastroprotective effect ([1]; ±0.40 log units): 0.036 µg
- onset of effect in food intake assays [3]: ≤ 30 min
- time course of effect in food intake assays [3]: its effect tapers off after 60 minutes

Molecule: CSNLSTCVLGKLSQELHKLQTYPRTNTGSGTP (listed as Oncorhynchus sp.) [salmon calcitonin]
- time course of effect in food intake assays [3]: delayed effect, with peak levels still maintained at 240 minutes

Molecule: KCNTATCATQRLANFLVRSSNNLGPVLPPTNVGSNTY (listed as Rattus sp.) [rat amylin]
- reduction of active ghrelin (FIG. 8A) ([4]; 10 μg s.c. 20 min after pentagastrin […], within 1 hour): ~50%
- plasma ghrelin, amylin alone without pentagastrin (FIG. 8B) ([4]; 30 μg/kg s.c., no pentagastrin): plasma ghrelin was reduced compared to the control
- total plasma ghrelin compared to saline control (FIGS. 8B, 8C) ([4]; 30 μg/kg s.c., with or without pentagastrin): reduction in total plasma ghrelin
